Molecular target: T1, EGFR L858R-T790M (Homo sapiens, UniProt P00533, L858R/T790M)
T1 construct: NCI-H1975 (harboring EGFR heterozygous L858R-T790M mutations); host or cells: NCI-H1975
Experiment: EGFR degradation, Total EGFR (L858R-specific) HTRF, NCI-H1975
Format: cell-based
Details: Table 9A; NCI-H1975 cells, 6 hours, Total EGFR HTRF; read-out: H1975 EGFR DC50
From the text: NCI-H1975 (harboring EGFR heterozygous L858R-T790M mutations) and NCI-H3255 (harboring EGFR heterozygous L858R mutation) were purchased from ATCC and NCI, respectively. NCI-H1975+CS (harboring EGFR heterozygous L858R-T790M-C797S mutations) was generated using CRISPR technology to introduce the additional C797S mutation by Horizon Discovery. A431 (harboring EGFR wildtype) was purchased from ATCC. RPMI 1640 no-phenol red medium and fetal bovine serum (FBS) were purchased from Gibco (Grand Island, NY, USA). Cell culture flasks and 384-well microplates were acquired from VWR (Radnor, PA, USA). Phosphorylated (pY1068) EGFR and Total EGFR (using L858R-specific detection antibody and pan-EGFR antibody for EGFR mutant cell lines and EGFR wild-type cell lines, respectively) HTRF assay kits were purchased from Cisbio (Bedford, MA, USA).
Degradation of EGFR protein containing L858R mutation or wild-type was determined based on quantification of FRET signal using a Total EGFR (L858R-specific or pan-EGFR detecting) HTRF assay kit. Phospho-EGFR (pEGFR) inhibition was determined based on quantification of FRET signal using a pY1068 EGFR HTRF assay kit. In separate assay plates, test compounds were added to the 384-well plate from a top concentration of 10 μM with 11 points, half log titration in duplicates. For each assay, 12.5 uL of cells suspended in assay media (RPMI 1640 no-phenol red medium+10% FBS) at cell densities indicated for each cell line in Table 8 below were dispensed using a multi-channel pipette to 384-well low volume white HTRF microplates containing a duplicate concentration range of test compounds and DMSO controls. The plates were kept at 37° C. with 5% CO2 for 6 hours and then incubated with either phospho EGFR or Total EGFR HTRF detection antibodies according to the cell line and EGFR mutant being assayed. Cells treated in the absence of the test compound were the negative control. Positive control was set by wells containing all reagents but no cells. FRET signal was acquired on EnVision™ Multilabel Reader (PerkinElmer, Santa Clara, CA, USA). Compound concentration that achieves 50% degradation and inhibition was reported as DC50 and IC50, respectively.

T1 sequence (P00533 25-1210 T790M/L858R): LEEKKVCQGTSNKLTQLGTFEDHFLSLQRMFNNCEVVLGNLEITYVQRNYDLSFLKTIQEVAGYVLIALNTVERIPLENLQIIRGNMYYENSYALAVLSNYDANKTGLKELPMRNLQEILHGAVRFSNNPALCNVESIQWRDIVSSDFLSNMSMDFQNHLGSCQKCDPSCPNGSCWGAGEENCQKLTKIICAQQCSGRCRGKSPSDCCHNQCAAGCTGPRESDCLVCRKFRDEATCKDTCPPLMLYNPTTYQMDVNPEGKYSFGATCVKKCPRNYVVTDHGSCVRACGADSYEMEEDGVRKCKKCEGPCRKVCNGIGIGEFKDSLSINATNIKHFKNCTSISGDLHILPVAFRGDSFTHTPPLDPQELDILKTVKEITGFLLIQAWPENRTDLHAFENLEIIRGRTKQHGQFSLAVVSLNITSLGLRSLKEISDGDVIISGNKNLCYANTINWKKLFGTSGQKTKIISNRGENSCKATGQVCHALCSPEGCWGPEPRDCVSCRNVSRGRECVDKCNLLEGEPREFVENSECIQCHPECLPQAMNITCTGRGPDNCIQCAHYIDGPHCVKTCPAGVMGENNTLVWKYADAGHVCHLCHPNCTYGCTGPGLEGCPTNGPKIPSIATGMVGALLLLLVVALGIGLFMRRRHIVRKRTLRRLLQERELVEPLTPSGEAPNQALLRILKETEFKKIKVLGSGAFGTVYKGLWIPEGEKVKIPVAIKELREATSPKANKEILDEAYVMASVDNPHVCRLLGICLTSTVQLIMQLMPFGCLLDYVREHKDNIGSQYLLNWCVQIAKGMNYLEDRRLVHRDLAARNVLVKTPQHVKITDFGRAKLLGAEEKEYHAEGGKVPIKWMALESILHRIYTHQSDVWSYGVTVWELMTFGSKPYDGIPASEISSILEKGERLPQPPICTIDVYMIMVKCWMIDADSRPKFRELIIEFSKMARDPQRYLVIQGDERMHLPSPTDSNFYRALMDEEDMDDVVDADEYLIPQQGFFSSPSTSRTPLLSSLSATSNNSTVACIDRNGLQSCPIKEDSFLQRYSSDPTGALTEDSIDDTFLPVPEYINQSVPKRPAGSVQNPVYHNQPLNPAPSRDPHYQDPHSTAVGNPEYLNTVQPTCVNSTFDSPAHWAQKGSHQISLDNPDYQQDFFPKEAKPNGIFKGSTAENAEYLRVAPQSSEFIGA

Row | SMILES | DC50 [nM]
1 | O=C1CC[C@H](Nc2ccc(C3CCN(CC(=O)N4CCC(Oc5ccc(-c6cc(F)c7c(c6)C(=O)N(C(C(=O)Nc6nccs6)c6ncn8c6CCC8)C7)cc5)CC4)CC3)c(F)c2)C(=O)N1 (stereo partly drawn) [Compound 39, 2-(6,7-dihydro-5H-pyrrolo[1,2-c]imidazol-1-yl)-2-(6-(4-((1-(2-(4-(4-(((S)-2,6-dioxopiperidin-3-yl)amino)-2-fluorophenyl)piperidin-1-yl)acetyl)piperidin-4-yl)oxy)phenyl)-4-fluoro-1-oxoisoindolin-2-yl)-N-(thiazol-2-yl)acetamide] | 50 to 150
2 | O=C1CCC(Nc2ccc(C3CCN(CC(=O)N4CCC(Oc5ccc(-c6cc(F)c7c(c6)C(=O)N(C(C(=O)Nc6nccs6)c6ncn8c6CCC8)C7)cc5)CC4)CC3)nc2)C(=O)N1 (centres unmarked) [Compound 36, 2-(6,7-dihydro-5H-pyrrolo[1,2-c]imidazol-1-yl)-2-(6-(4-((1-(2-(4-(5-((2,6-dioxopiperidin-3-yl)amino)pyridin-2-yl)piperidin-1-yl)acetyl)piperidin-4-yl)oxy)phenyl)-4-fluoro-1-oxoisoindolin-2-yl)-N-(thiazol-2-yl)acetamide] | < 50
3 | O=C1CCC(Nc2ccc(C3CCN(CC(=O)N4CCN(c5ccc(-c6ccc7cn(C(C(=O)Nc8nccs8)c8ncn9c8CCC9)nc7c6F)cn5)CC4)CC3)cc2)C(=O)N1 (racemic) [Compound 63, (2RS)-2-(6,7-Dihydro-5H-pyrrolo[1,2-c]imidazol-1-yl)-2-[7-fluoro-6-[6-[4-[2-[4-[4-[[(3RS)-2,6-dioxo-3-piperidyl]amino]phenyl]-1-piperidyl]acetyl]piperazin-1-yl]-3-pyridyl]indazol-2-yl]-N-thiazol-2-yl-acetamide] | 50 to 150
4 | O=C1CCC(Nc2ccc(C3CCN(C(=O)CN4CCC(c5ccc(-c6cc(F)c7c(c6)C(=O)N(C(C(=O)Nc6nccs6)c6ncn8c6CCC8)C7)cc5)CC4)CC3)cc2)C(=O)N1 (centres unmarked) [Compound 26, 2-(6,7-dihydro-5H-pyrrolo[1,2-c]imidazol-1-yl)-2-[6-[4-[1-[2-[4-[4-[(2,6-dioxo-3-piperidyl)amino]phenyl]-1-piperidyl]-2-oxo-ethyl]-4-piperidyl]phenyl]-4-fluoro-1-oxo-isoindolin-2-yl]-N-thiazol-2-yl-acetamide] | < 50
5 | O=C1CCC(Nc2ccc(C3CCN(CC(=O)N4CCN(c5ccc(-c6cc(F)c7cn(C(C(=O)Nc8nccs8)c8ncn9c8CCC9)nc7c6)cn5)CC4)CC3)cc2)C(=O)N1 (centres unmarked) [Compound 65, 2-(6,7-dihydro-5H-pyrrolo[1,2-c]imidazol-1-yl)-2-[6-[6-[4-[2-[4-[4-[(2,6-dioxo-3-piperidyl)amino]phenyl]-1-piperidyl]acetyl]piperazin-1-yl]-3-pyridyl]-4-fluoro-indazol-2-yl]-N-thiazol-2-yl-acetamide] | < 50

Same assay, conditions: Table 9B; NCI-H1975 cells, 6 hours, Total EGFR HTRF; read-out: H1975 EGFR DC50

Row | SMILES | DC50 [nM]
6 | Cn1nc(N2CCC(=O)NC2=O)c2cc(F)c(N3CCC(O)(CC(=O)N4CC5(C4)CN(c4ccc(-c6cc(F)c7c(c6)C(=O)N(C(C(=O)Nc6nccs6)c6ncn8c6CCC8)C7)cc4)C5)CC3)cc21 (centres unmarked) [Compound 127, 2-(6,7-dihydro-5H-pyrrolo[1,2-c]imidazol-1-yl)-2-[6-[4-[2-[2-[1-[3-(2,4-dioxohexahydropyrimidin-1-yl)-5-fluoro-1-methyl-indazol-6-yl]-4-hydroxy-4-piperidyl]acetyl]-2,6-diazaspiro[3.3]heptan-6-yl]phenyl]-4-fluoro-1-oxo-isoindolin-2-yl]-N-thiazol-2-yl-acetamide] | < 50
7 | O=C1CC[C@H](Nc2ccc(N3CCC(O)(CC(=O)N4CC5(C4)CN(c4ccc(-c6ccc7cn(C(C(=O)Nc8nccs8)c8ncn9c8CCC9)nc7c6F)cc4)C5)CC3)c(F)c2)C(=O)N1 (stereo partly drawn) [Compound 78, 2-(6,7-dihydro-5H-pyrrolo[1,2-c]imidazol-1-yl)-2-(6-(4-(6-(2-(1-(4-(((S)-2,6-dioxopiperidin-3-yl)amino)-2-fluorophenyl)-4-hydroxypiperidin-4-yl)acetyl)-2,6-diazaspiro[3.3]heptan-2-yl)phenyl)-7-fluoro-2H-indazol-2-yl)-N-(thiazol-2-yl)acetamide] | < 50
8 | O=C1CCC(Nc2ccc(N3CCC(O)(CC(=O)N4CCC5(CC4)CN(c4ccc(-c6cc(F)c7c(c6)C(=O)N(C(C(=O)Nc6nccs6)c6ncn8c6CCC8)C7)cc4)C5)CC3)c(F)c2)C(=O)N1 (centres unmarked) [Compound 114, 2-(6,7-dihydro-5H-pyrrolo[1,2-c]imidazol-1-yl)-2-[6-[4-[7-[2-[1-[4-[(2,6-dioxo-3-piperidyl)amino]-2-fluoro-phenyl]-4-hydroxy-4-piperidyl]acetyl]-2,7-diazaspiro[3.5]nonan-2-yl]phenyl]-4-fluoro-1-oxo-isoindolin-2-yl]-N-thiazol-2-yl-acetamide] | < 50
9 | Cn1nc(N2CCC(=O)NC2=O)c2ccc([C@@H]3CCN(C(=O)CN4CC5(CCN(c6ccc(-c7cc(F)c8c(c7)C(=O)N(C(C(=O)Nc7nccs7)c7ncn9c7CCC9)C8)cc6)CC5)C4)CC3(F)F)cc21 (stereo partly drawn) [Compound 144, 2-(6,7-dihydro-5H-pyrrolo[1,2-c]imidazol-1-yl)-2-[6-[4-[2-[2-[(4S)-4-[3-(2,4-dioxohexahydropyrimidin-1-yl)-1-methyl-indazol-6-yl]-3,3-difluoro-1-piperidyl]-2-oxo-ethyl]-2,7-diazaspiro[3.5]nonan-7-yl]phenyl]-4-fluoro-1-oxo-isoindolin-2-yl]-N-thiazol-2-yl-acetamide] | < 50
10 | COc1cc(N2CCC(O)(CC(=O)N3CC4(C3)CN(c3ccc(-c5cc(F)c6c(c5)C(=O)N(C(C(=O)Nc5nccs5)c5ncn7c5CCC7)C6)cc3)C4)CC2)c(F)cc1NC1CCC(=O)NC1=O (single isomer, unassigned) [Compound 173, 2-(6,7-dihydro-5H-pyrrolo[1,2-c]imidazol-1-yl)-2-[6-[4-[2-[2-[1-[4-[[2,6-dioxo-3-piperidyl]amino]-2-fluoro-5-methoxy-phenyl]-4-hydroxy-4-piperidyl]acetyl]-2,6-diazaspiro[3.3]heptan-6-yl]phenyl]-4-fluoro-1-oxo-isoindolin-2-yl]-N-thiazol-2-yl-acetamide] | < 50
11 | O=C1CCC(Nc2cnc(C3CCN(CC(=O)N4CC5(C4)CN(c4ccc(-c6cc(F)c7c(c6)C(=O)N(C(C(=O)Nc6nccs6)c6ncn8c6CCC8)C7)cc4)C5)CC3)c(F)c2)C(=O)N1 (centres unmarked) [Compound 112, 2-(6,7-dihydro-5H-pyrrolo[1,2-c]imidazol-1-yl)-2-(6-(4-(6-(2-(4-(5-((2,6-dioxopiperidin-3-yl)amino)-3-fluoropyridin-2-yl)piperidin-1-yl)acetyl)-2,6-diazaspiro[3.3]heptan-2-yl)phenyl)-4-fluoro-1-oxoisoindolin-2-yl)-N-(thiazol-2-yl)acetamide] | < 50
12 | O=C1CC[C@H](Nc2ccc(N3CCC(O)(C(=O)N4CC5(C4)CN(c4ccc(-c6cc(F)c7c(c6)C(=O)N(C(C(=O)Nc6nccs6)c6ncn8c6CCC8)C7)cc4)C5)CC3)c(F)c2)C(=O)N1 (single isomer, unassigned; isomer 1) [Compound 146, 2-(6,7-dihydro-5H-pyrrolo[1,2-c]imidazol-1-yl)-2-[6-[4-[2-[1-[4-[[2,6-dioxo-3-piperidyl]amino]-2-fluoro-phenyl]-4-hydroxy-piperidine-4-carbonyl]-2,6-diazaspiro[3.3]heptan-6-yl]phenyl]-4-fluoro-1-oxo-isoindolin-2-yl]-N-thiazol-2-yl-acetamide, isomer 1] | < 50
13 | Cn1nc(N2CCC(=O)NC2=O)c2ccc(C3CCN(C(=O)CN4CC5(C4)CN(c4ccc(-c6cc(F)c7c(c6)C(=O)N(C(C(=O)Nc6nccs6)c6ncn8c6CCC8)C7)cn4)C5)CC3(F)F)cc21 (centres unmarked) [Compound 118, 2-(6,7-dihydro-5H-pyrrolo[1,2-c]imidazol-1-yl)-2-(6-(6-(6-(2-(4-(3-(2,4-dioxotetrahydropyrimidin-1(2H)-yl)-1-methyl-1H-indazol-6-yl)-3,3-difluoropiperidin-1-yl)-2-oxoethyl)-2,6-diazaspiro[3.3]heptan-2-yl)pyridin-3-yl)-4-fluoro-1-oxoisoindolin-2-yl)-N-(thiazol-2-yl)acetamide] | < 50
14 | O=C1CCC(Nc2ccc(N3CCC(O)(CC(=O)N4CC5(CCN(c6ccc(-c7cc(F)c8c(c7)C(=O)N(C(C(=O)Nc7nccs7)c7ncn9c7CCC9)C8)cc6)CC5)C4)CC3)c(Cl)c2)C(=O)N1 (single isomer, unassigned; isomer 1) [Compound 128, 2-[6-[4-[2-[2-[1-[2-chloro-4-[[2,6-dioxo-3-piperidyl]amino]phenyl]-4-hydroxy-4-piperidyl]acetyl]-2,7-diazaspiro[3.5]nonan-7-yl]phenyl]-4-fluoro-1-oxo-isoindolin-2-yl]-2-(6,7-dihydro-5H-pyrrolo[1,2-c]imidazol-1-yl)-N-thiazol-2-yl-acetamide, isomer 1] | < 50
